Measurements as given in patent US20100190768A1, “NOVEL FUSED PYROLE DERIVATIVE” (Dainippon Sumitomo Pharma Co., Ltd., priority 2005, published 2010).

Legend:
human GRα protein = molecular target: T1, human GRα protein (Homo sapiens, UniProt P04150); test: Binding inhibitory assay (displacement of 3H-dexamethasone from the cytoplasm fraction of baculovirus-infected insect cells); details: 100 nM test compound; 3H-Dex; NSB with 10 μM dexamethasone; read-out: Binding Inhibitory ratio (%) of 100 nM of test compound
T1 construct: made in house; host or cells: insect cells infected with baculovirus; cytoplasm fraction used
T1 sequence (P04150 1-777): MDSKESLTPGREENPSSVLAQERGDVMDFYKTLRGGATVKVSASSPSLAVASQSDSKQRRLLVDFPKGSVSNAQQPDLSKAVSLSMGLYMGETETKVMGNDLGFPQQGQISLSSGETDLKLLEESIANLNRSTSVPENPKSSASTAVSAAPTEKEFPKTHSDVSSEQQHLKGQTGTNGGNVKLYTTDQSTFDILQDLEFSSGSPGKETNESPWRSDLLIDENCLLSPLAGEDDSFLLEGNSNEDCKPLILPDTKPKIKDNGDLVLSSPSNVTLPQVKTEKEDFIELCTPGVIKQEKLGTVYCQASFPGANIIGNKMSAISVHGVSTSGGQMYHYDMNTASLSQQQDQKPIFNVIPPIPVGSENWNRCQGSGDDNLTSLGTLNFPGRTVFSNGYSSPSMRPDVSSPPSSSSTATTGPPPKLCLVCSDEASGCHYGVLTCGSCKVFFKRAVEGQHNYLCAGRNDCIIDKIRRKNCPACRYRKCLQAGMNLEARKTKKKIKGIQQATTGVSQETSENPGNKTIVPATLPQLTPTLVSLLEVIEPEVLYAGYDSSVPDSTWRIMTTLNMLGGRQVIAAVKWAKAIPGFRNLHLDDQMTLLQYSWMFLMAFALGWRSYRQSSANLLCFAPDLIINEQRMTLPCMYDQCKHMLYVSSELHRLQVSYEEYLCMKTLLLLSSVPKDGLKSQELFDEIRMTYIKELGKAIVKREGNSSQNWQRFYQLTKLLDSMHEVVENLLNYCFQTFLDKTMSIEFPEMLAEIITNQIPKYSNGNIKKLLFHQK
Experimental: Insect cells, which had been infected with baculovirus for expressing human GRα protein, were suspended in an approximately equal volume of a binding buffer (10 mM Tris-Cl, 1.5 mM EDTA, 10% glycerol, 5 mM DTT, 20 mM sodium molybdate, pH 7.6). The mixture was rapidly frozen with liquid nitrogen, and then melted at room temperature. This cycle was repeated totally twice in order to break the cell membrane. The mixture was ultracentrifuged under 100,000 g at 4° C. for one hour to give the supernatant, which was the cytoplasm fraction containing human GRα protein.
A polypropylene 96-well plate (manufactured by Costar Corporation, etc.) was placed on ice, and DMSO or a test compound (each 1 μl) was put into each well. A 10 nM ^3H-Dex solution (50 μl; tritiated dexamethasone; manufactured by Amersham) in the binding buffer, and a GR protein solution, i.e., a solution by diluting the above cytoplasm fraction with the binding buffer (50 μl) were added to each well, and the plate was lightly shaken with a plate mixer, and then left to stand at 4° C. for 16 to 20 hours (the final concentration of DMSO: 1%).
A 5% solution of dextran-coated active carbon (manufactured by Sigma) suspended in the binding buffer (50 μl) was put into each well, and the plate was lightly shaken with a plate mixer for 30 seconds. Then, the plate was centrifuged at 2500 rpm at 4° C. for 5 minutes, and the ^3H count in the supernatant (50 μl) was measured by a TopCount (manufactured by Perkin-Elmer Corporation). Each test compound was tested twice.
The binding activity was calculated as follows. The mean ^3H count in the presence of dexamethason (Dex) 10 μM was considered as NSB (non-specific binding), and the binding inhibitory ratio in each well was calculated by the following equation.
Binding Inhibitory Ratio (%)=100×{1−(cpm value of each well−NSB)/(mean cpm value of DMSO-well−NSB)}
(cpm means count per minute)
The mean binding inhibitory ratio of each well was calculated by the above equation to give a binding inhibitory ratio of each test compound.

H4-III-E cells = test: TAT (tyrosine aminotransferase) assay; assay type: cell-based; details: for Agonistic activity of 10 μM test compound / activation at 10 µM: 10 μM test compound alone, relative to maximum Dex-induced TAT activity (100%); for Antagonistic activity of 10 μM test compound: 10 μM test compound together with 0.005 μM dexamethasone, inhibitory ratio against TAT activity increase by Dex; for activation at 10 µM: read-out: Agonistic activity of 10 μM test compound
Experimental: H4-III-E cells, which had been continuously cultured in α-MEM medium A (supplemented with 10% inactivated FBS, 50 μM 2-mercapto-ethanol), were suspended in α-MEM medium A or α-MEM medium B (supplemented with 10% inactivated FBS, 50 μM 2-mercapto-ethanol, but without phenol red), and the cell suspension was seeded to a 96-well plate in an amount of 2×10^4 cells/100 μl/well, and the cells were cultured overnight. The supernatant in the medium was removed, and a test compound (100 μl, diluted with α-MEM medium A or α-MEM medium B) was added, and the cells were further cultured overnight. In order to measure the agonistic activity, a test compound was added alone, while in order to measure the antagonistic activity, a test compound was added simultaneously together with 0.005 μM dexamethasone and evaluated the extent of the inhibitory effect of said test compound against the TAT activity-inducing activity by dexamethasone.
The culture supernatant in the plate was removed by suction, and a cell lysate (20 μL; 1% NP-40, 0.2% Triton X-100, 0.25% DOC, 0.1% SDS, 1 mM EGTA, 150 mM NaCl, Tris (pH7.4), Protease inhibitor cocktail [2.5 mg/ml aprotinin, 2.5 mg/ml leupeptin, 2.5 mg/ml soybean trypsin inhibitor]) was added, and further thereto was added a TAT reaction reagent (150 μL; 10 N KOH, 0.125 M KH2PO4, 0.5 M α-ketoglutarate, 5 mM Pyridoxal-5′ phosphate, L-tyrosine), and the mixture was reacted at 37° C. for 15 minutes. Further, a 10N KOH (20 μL) was added thereto, and the mixture was reacted at 37° C. for 30 minutes, and the absorbance at 331 nm was measured by a microplate reader (SPECTRA MAX 250).
From the mean absorbance in the wells to which a test compound was added, the mean absorbance in the wells to which a compound and a TAT reaction solution were not added was subtracted.
Agonistic activity (%)=100×[(absorbance of the drug-treated group)−(absorbance of the group without TAT reaction reagent)]/[(absorbance of Dex-treated group)−(absorbance of the group without TAT reaction reagent)]
On the other hand, the antagonistic activity was calculated as follows.
Antagonistic activity (%)=Inhibitory ratio (%) against TAT activity increase by Dex=100−100×[(absorbance of the drug-treated group)−(absorbance of the group without a drug)]/[(absorbance of Dex-treated group)−(absorbance of the group without a drug)]
With regard to the agonistic activity and the antagonistic activity, the results of 10% or more were expressed as O, while the results of less than 10% were expressed as X.

| SMILES | inhibition at 0.1 µM (human GRα protein) | Agonistic activity of 10 μM test compound (H4-III-E cells) | Antagonistic activity of 10 μM test compound (H4-III-E cells) | activation at 10 µM (H4-III-E cells) |
| --- | --- | --- | --- | --- |
| CCOC(=O)CCCNCC(O)(c1cn(Cc2ccccc2)c2cc([N+](=O)[O-])ccc12)C(F)(F)F (stereo not drawn) [Example 169, Ethyl 4-{[2-(1-benzyl-6-nitro-1H-indol-3-yl)-3,3,3-trifluoro-2-hydroxypropyl]-amino}butanoate] | 99% | ◯ | ◯ |  |
| CCOC(=O)CCCCNCC(O)(c1cn(Cc2ccccc2)c2cc([N+](=O)[O-])ccc12)C(F)(F)F (stereo not drawn) [Example 173, Ethyl 5-{[2-(1-benzyl-6-nitro-1H-indol-3-yl)-3,3,3-trifluoro-2-hydroxypropyl]-amino}pentanoate] | 88% |  | ◯ | < 10% |
| O=C(O)c1ccc(OC2CCN(CC(O)(c3cn(Cc4ccccc4)c4cc([N+](=O)[O-])ccc34)C(F)(F)F)CC2)cc1 (stereo not drawn) [Example 178, 4-({1-[2-(1-Benzyl-6-nitro-1H-indol-3-yl)-3,3,3-trifluoro-2-hydroxypropyl]-piperidin-4-yl}oxy)benzoic acid] | 95% | ◯ | ◯ |  |
| CCOC(=O)Cc1ccc(OC2CCN(CC(O)(c3cn(Cc4ccccc4)c4cc([N+](=O)[O-])ccc34)C(F)(F)F)CC2)cc1 (stereo not drawn) [Example 179] | 81% | ◯ | ◯ |  |
| O=C(O)Cc1ccc(OC2CCN(CC(O)(c3cn(Cc4ccccc4)c4cc([N+](=O)[O-])ccc34)C(F)(F)F)CC2)cc1 (stereo not drawn) [Example 180, [4-({1-[2-(1-Benzyl-6-nitro-1H-indol-3-yl)-3,3,3-trifluoro-2-hydroxypropyl]-piperidin-4-yl}oxy)phenyl]acetic acid] | 98% | ◯ | ◯ |  |
| CCOC(=O)CCc1ccc(OC2CCN(CC(O)(c3cn(Cc4ccccc4)c4cc([N+](=O)[O-])ccc34)C(F)(F)F)CC2)cc1 (stereo not drawn) [Example 181, Ethyl 3-[4-({1-[2-(1-benzyl-6-nitro-1H-indol-3-yl)-3,3,3-trifluoro-2-hydroxypropyl]piperidin-4-yl}oxy)phenyl]propanoate] | 87% | ◯ | ◯ |  |
| O=C(O)CCc1ccc(OC2CCN(CC(O)(c3cn(Cc4ccccc4)c4cc([N+](=O)[O-])ccc34)C(F)(F)F)CC2)cc1 (stereo not drawn) [Example 182, 3-[4-({1-[2-(1-Benzyl-6-nitro-1H-indol-3-yl)-3,3,3-trifluoro-2-hydroxypropyl]-piperidin-4-yl}oxy)phenyl]propanoic acid] | 99% | ◯ | ◯ |  |
| CS(=O)(=O)C1CCN(CC(O)(c2cn(Cc3ccccc3)c3cc([N+](=O)[O-])ccc23)C(F)(F)F)CC1 (stereo not drawn) [Example 183, 2-(1-Benzyl-6-nitro-1H-indol-3-yl)-1,1,1-trifluoro-3-[4-(methylsulfonyl)piperidin-1-yl]propan-2-ol] | 88% | ◯ | ◯ |  |
| O=[N+]([O-])c1ccc2c(C(O)(CN3CCC(S(=O)(=O)c4ccccc4)CC3)C(F)(F)F)cn(Cc3ccccc3)c2c1 (stereo not drawn) [Example 184, 2-(1-Benzyl-6-nitro-1H-indol-3-yl)-1,1,1-trifluoro-3-[4-(phenylsulfonyl)piperidin-1-yl]propan-2-ol] | 97% | ◯ | X (the results of less than 10% were expressed as X) |  |
| O=[N+]([O-])c1ccc2c(C(O)(CN3CCC(Nc4ccccc4)CC3)C(F)(F)F)cn(Cc3ccccc3)c2c1 (stereo not drawn) [Example 185, 3-(4-Anilinopiperidin-1-yl)-2-(1-benzyl-6-nitro-1H-indol-3-yl)-1,1,1-trifluoropropan-2-ol] | 82% |  | ◯ | < 10% |
| O=C(c1cccs1)C1CCN(CC(O)(c2cn(Cc3ccccc3)c3cc([N+](=O)[O-])ccc23)C(F)(F)F)CC1 (stereo not drawn) [Example 194, {1-[2-(1-Benzyl-6-nitro-1H-indol-3-yl)-3,3,3-trifluoro-2-hydroxypropyl]piperidin-4-yl}(2-thienyl)methanone] | 94% | ◯ | ◯ |  |
| O=C(c1cccnc1)C1CCN(CC(O)(c2cn(Cc3ccccc3)c3cc([N+](=O)[O-])ccc23)C(F)(F)F)CC1 (stereo not drawn) [Example 197, {1-[2-(1-Benzyl-6-nitro-1H-indol-3-yl)-3,3,3-trifluoro-2-hydroxypropyl]piperidin-4-yl}(pyridin-3-yl)methanone] | 94% | ◯ | ◯ |  |
| CCOC(=O)Cc1ccc(OC2CCN(CC(O)(c3cn(Cc4ccccc4)c4cc([N+](=O)[O-])ccc34)C(F)(F)F)CC2)c(OC)c1 (stereo not drawn) [Example 200, Ethyl[4-({1-[2-(1-benzyl-6-nitro-1H-indol-3-yl)-3,3,3-trifluoro-2-hydroxypropyl]-piperidin-4-yl}oxy)-3-methoxyphenyl]acetate] | 88% | ◯ | ◯ |  |
| COc1cc(CC(=O)O)ccc1OC1CCN(CC(O)(c2cn(Cc3ccccc3)c3cc([N+](=O)[O-])ccc23)C(F)(F)F)CC1 (stereo not drawn) [Example 201, [4-({1-[2-(1-Benzyl-6-nitro-1H-indol-3-yl)-3,3,3-trifluoro-2-hydroxypropyl]-piperidin-4-yl}oxy)-3-methoxyphenyl]acetic acid] | 99% | ◯ | ◯ |  |
